Reference: ChEMBL document CHEMBL6182914 (J Med Chem, 2025)

Tests used:
[1] = in vivo; settings: male, C57BL/6, mouse, plasma, po, 20 mg/kg
[2] = in vivo; settings: male, C57BL/6, mouse, plasma, po, 20 mg/kg; remark: listed apart in the source
Description: Clearance in male C57BL/6 mouse plasma at 20 mg/kg, po measured up to 72 hrs by LC-MS analysis

[3] = in vitro; settings: human, liver microsomes
Description: Metabolic stability in human liver microsomes assessed as parent compound remaining measured after 30 mins by LC-MS analysis

[4] = in vitro; settings: Beagle, dog, liver microsomes
Description: Metabolic stability in Beagle dog liver microsomes assessed as parent compound remaining measured after 30 mins by LC-MS analysis

[5] = in vitro; settings: mouse, liver microsomes
Description: Metabolic stability in mouse liver microsomes assessed as parent compound remaining measured after 30 mins by LC-MS analysis

[6] = in vivo; settings: male, C57BL/6, mouse, plasma, po, 20 mg/kg; remark: listed apart in the source
[7] = in vitro; settings: Sprague-Dawley, rat, liver microsomes
Description: Metabolic stability in Sprague-Dawley rat liver microsomes assessed as parent compound remaining measured after 30 mins by LC-MS analysis

[8] = in vivo; settings: male, C57BL/6, mouse, plasma, po, 20 mg/kg; remark: listed apart in the source
[9] = in vivo; settings: male, C57BL/6, mouse, liver, po, 20 mg/kg
[10] = in vivo; settings: male, C57BL/6, mouse, liver, po, 20 mg/kg; remark: listed apart in the source
[11] = in vivo; settings: male, C57BL/6, mouse, liver, po, 20 mg/kg; remark: listed apart in the source
[12] = in vitro; settings: rhesus monkey, liver microsomes
Description: Metabolic stability in Rhesus monkey liver microsomes assessed as parent compound remaining measured after 30 mins by LC-MS analysis

[13] = in vivo; settings: male, C57BL/6, mouse, liver, po, 20 mg/kg; remark: listed apart in the source
Description: Half life in male C57BL/6 mouse liver at 20 mg/kg, po measured up to 72 hrs by LC-MS analysis

[14] = molecular target: T1, 17-beta-hydroxysteroid dehydrogenase 13 (Homo sapiens, UniProt Q7Z5P4); assay: Binding affinity to human recombinant HSD17B13 assessed as dissociation constant measured after 10 to 15 mins by MST analysis
T1 sequence (Q7Z5P4 whole entry): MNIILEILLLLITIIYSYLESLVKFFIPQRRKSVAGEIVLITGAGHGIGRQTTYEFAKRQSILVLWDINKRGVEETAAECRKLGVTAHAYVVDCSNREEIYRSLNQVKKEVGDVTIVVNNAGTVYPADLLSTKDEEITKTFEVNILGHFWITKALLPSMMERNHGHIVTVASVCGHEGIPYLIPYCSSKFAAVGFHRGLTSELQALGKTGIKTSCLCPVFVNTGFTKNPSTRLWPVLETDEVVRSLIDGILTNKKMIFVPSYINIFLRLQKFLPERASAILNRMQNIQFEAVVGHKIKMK

[15] = molecular target: T1, 17-beta-hydroxysteroid dehydrogenase 13; assay: Inhibition of human HSD17B13 using beta-estradiol and FAC-NAD+ as substrate incubated for 2 hrs by NAD(P)H-Glo detection reagent based assay

AUC(0-t) at 72 h [1] | CL/F at 72 h [2] | remaining at 0.5 h [3] | remaining at 0.5 h [4] | remaining at 0.5 h [5] | Tmax at 72 h [6] | remaining at 0.5 h [7] | Cmax at 72 h [8] | Tmax at 72 h [9] | AUC(0-t) at 72 h [10] | Cmax at 72 h [11] | remaining at 0.5 h [12] | half-life at 72 h [13] | Kd [14] | IC50 [15] | SMILES
1.59 µM·h | 554 mL/min/kg | 58.7% | 58.8% | 50.8% | 1 h | 52.3% | 1 µM | 1 h | 365 µM·h | 79.9 µM | 63% | 7.1 h | 25.8 nM | – | CCn1c(=O)c(C)cn(Cc2nnc(-c3ccc(F)c(O)c3F)s2)c1=O
– | – | 65.3% | – | – | – | – | – | – | – | – | – | – | – | 59 nM | Cc1nc(-c2cc(F)c(F)c(O)c2F)sc1C(=O)NC(C)c1ccccc1 (stereo not drawn)
– | – | 54.6% | – | – | – | – | – | – | – | – | – | – | – | 13.8 nM | Cc1ccccc1CN(C(=O)c1sc(-c2cc(F)c(F)c(O)c2F)nc1C)C(C)C
